Test results: EPA's ToxValDB 9.5

How the values were obtained:
[1] = system: Rattus norvegicus; test: FEL; higher = less toxic; details: duration: 14 days, oral, gavage, Crl:CD(SD)
[2] = system: Rattus norvegicus; details: oral, gavage
[3] = chronic, duration: 110 days, M, Sprague-Dawley, Reproductive: Decreased serum testosterone (44%)
[4] = developmental, duration: 47 days, M/F, Sprague-Dawley, Body Weight: Decreased body weight gain (20-30%) + Developmental: Decreases in pup body weight (only one litter had live pups) + Endocrine: …
[5] = short-term, duration: 14 days, M, Sprague-Dawley, Body Weight: 25% reduction in final body weight + Reproductive: Decreased serum testosterone (38%) and estradiol (~38%), and ultrastructural…
[6] = short-term, duration: 28 days, F, Sprague-Dawley, Endocrine: 40% reduced serum estradiol in pubertal females
[7] = subchronic, duration: 47 days, F, Sprague-Dawley, Hepatic: Single cell necrosis in females / hepatocellular hypertrophy in males and females at […] / bile duct proliferation at […] in …

O=C(O)C(F)(F)C(F)(F)C(F)(F)C(F)(F)C(F)(F)C(F)(F)C(F)(F)C(F)(F)C(F)(F)C(F)(F)C(F)(F)F [Perfluorododecanoic acid]
FEL ([1]; developmental, F, generation: F1, F1: Whole Body: Body Weight, Fetal, PND0 + F1: Whole Body: Body Weight, Fetal, PND1 + F1: Whole Body: Body Weight, Fetal, PND4): 2.5 mg/kg-day
FEL ([1]; developmental, M, generation: F1, F1: Whole Body: Body Weight, Fetal, PND1 + F1: Whole Body: Body Weight, Fetal, PND4): 2.5 mg/kg-day
FEL ([1]; reproduction developmental, F, generation: P0, P0: Adrenal: Adrenal Gland Weight, Absolute + P0: Adrenal: Adrenal Gland Weight, Relative + P0: Blood: Albumin/Globulin (A/G) Ratio + P0: …): 2.5 mg/kg-day
FEL ([1]; reproduction developmental, M/F, generation: F1, F1: Uterus: Fetuses, Dead + F1: Whole Body: Live Birth Index + F1: Whole Body: Male Pups per Pups Sexed + F1: Whole Body: Number of litters): 2.5 mg/kg-day
LOAEL ([2]; acute, duration: 1 days, M, Wistar, Body Weight: 44% decrease in body weight gain (measured 10-days post-exposure) + Neurological: Impaired performance on novel object …): 50 mg/kg-day
NOAEL ([2]; acute, duration: 1 days, M, Wistar, Neurological: No alterations in open field activity + Neurological: No alterations in tests of working memory or depressive behavior): 50 mg/kg-day
NOAEL ([2]; chronic, duration: 110 days, M, Sprague-Dawley): 0.5 mg/kg-day
LOAEL [2, 3]: 0.2 mg/kg-day
NOAEL [2, 3]: 0.05 mg/kg-day
LOAEL [2, 4]: 2.5 mg/kg-day
NOAEL [2, 4]: 0.5 mg/kg-day
LOAEL [2, 5]: 5 mg/kg-day
NOAEL [2, 5]: 1 mg/kg-day
NOAEL ([2]; short-term, duration: 14 days, M, Sprague-Dawley, Hepatic: 35% increase in total serum cholesterol at 10 mg/kg/day): 10 mg/kg-day
NOAEL ([2]; short-term, duration: 14 days, M, Sprague-Dawley, Hepatic: Increased liver weight, increased hepatic triglyceride and cholesterol levels at ?5 mg/kg/day / increased serum triglyceride …): 10 mg/kg-day
LOAEL [2, 6]: 3 mg/kg-day
NOAEL [2, 6]: 1 mg/kg-day
LOAEL ([2]; subchronic, duration: 47 days, F, Sprague-Dawley, Death: 58% mortality): 2.5 mg/kg-day
LOAEL [2, 7]: 2.5 mg/kg-day
NOAEL [2, 7]: 0.5 mg/kg-day
NOAEL ([2]; subchronic, duration: 47 days, M/F, Sprague-Dawley): 2.5 mg/kg-day
